Experimental findings from patent publication US8748417B2, “Amino-pyrrolidine-azetidine diamides as monoacylglycerol lipase inhibitors” (Janssen Pharmaceutica, NV, priority 2010, dated 2014) are described below.

By IC50 is commonly meant the point on the concentration scale where inhibition reaches its midpoint.

Experiment [1] deals with MGL (rat brain homogenate). As to the kind of experiment: 2-AG accumulation assay in rat brain homogenate. It is filed as biochemical. As to conditions: compound 1 μM, percent of vehicle 2-AG accumulation. In outline:
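Rat brain homogenate was incubated with compound for 15 min at 37° C., after which CaCl2 was added to a final concentration of 10 mM and incubation continued for 15 min at 37° C. in 5 mL total. Reactions were stopped with 6 mL of 2:1 chloroform/methanol, and 2-AG accumulated in the organic phase was quantified by HPLC/MS.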

For experiment [2], the target named is T1, purified wild type MGL (wt-MGLL 6H-11-313) (Homo sapiens, UniProt Q99685).
T1 construct: purified wild type MGL (wt-MGLL 6H-11-313)
T1 sequence (Q99685 1-303): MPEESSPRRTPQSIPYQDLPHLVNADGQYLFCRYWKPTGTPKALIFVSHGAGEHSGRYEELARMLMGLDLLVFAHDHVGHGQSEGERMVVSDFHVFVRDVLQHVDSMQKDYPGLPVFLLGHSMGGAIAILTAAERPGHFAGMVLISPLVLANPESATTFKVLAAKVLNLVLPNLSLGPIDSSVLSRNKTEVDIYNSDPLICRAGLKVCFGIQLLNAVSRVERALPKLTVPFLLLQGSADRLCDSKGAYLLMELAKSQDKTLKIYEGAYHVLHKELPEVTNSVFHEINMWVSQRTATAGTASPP
Put plainly: MGL enzyme activity assay (4MU-B cleavage), wild type MGL. It is filed as biochemical. As to conditions: wild type MGL 5 nM, 4MU-B 10 μM, 37° C.; read-out: MGL wild type inh IC50. In short, it runs like this: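 Enzyme in 20 mM PIPES pH 7.0, 150 mM NaCl, 0.001% Tween 20 with 4MU-B at 10 μM final and MGL at 5 nM final; compounds 17 to 0.0003 μM final, enzyme added last. Fluorescence (ex 335/em 440 nm) followed at 37° C for 5 min; IC50 from fit of fractional activity versus inhibitor concentration.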

For `O=C(c1ccccc1)N1CC[C@H](NC2CN(C(=O)c3sc4ccc(-c5ccc(C(F)(F)F)cc5)cc4c3F)C2)C1` [Cpd 176, (3S)-N-[1-({3-Fluoro-5-[4-(trifluoromethyl)phenyl]-1-benzothiophen-2-yl}carbonyl)azetidin-3-yl]-1-(phenylcarbonyl)pyrrolidin-3-amine], the “Rat Brain 2AG % VehCntrl (%) @1 μM” value in experiment [1] is recorded as 832%. For the same compound, the half-inhibitory concentration (IC50) in experiment [2] was 6 nM.

As to `O=C(c1cscn1)N1CC[C@H](NC2CN(C(=O)c3cc4ccc(-c5cccc(C(F)(F)F)c5)cc4s3)C2)C1` [Cpd 100, (3S)-1-(1,3-Thiazol-4-ylcarbonyl)-N-[1-({6-[3-(trifluoromethyl)phenyl]-1-benzothiophen-2-yl}carbonyl)azetidin-3-yl]pyrrolidin-3-amine], the “Rat Brain 2AG % VehCntrl (%) @1 μM” value in experiment [1] is 546%. Further, in experiment [2], the half-inhibitory concentration (IC50) is less than 5 nM.

Take `O=C(c1ccc2c(-c3ccc(F)cc3)c[nH]c2c1)N1CC(N[C@H]2CCN(C(=O)c3nccs3)C2)C1` [Cpd 189, (3S)-N-(1-{[3-(4-Fluorophenyl)-1H-indol-6-yl]carbonyl}azetidin-3-yl)-1-(1,3-thiazol-2-ylcarbonyl)pyrrolidin-3-amine]: in experiment [1], the “Rat Brain 2AG % VehCntrl (%) @1 μM” value was determined as 277%. The half-maximal inhibitory concentration (IC50) in experiment [2] turned out to be 12.5 nM.

On to `O=C(c1nccs1)N1CC[C@H](NC2CN(C(=O)c3cc4ccn(-c5ccc(F)cc5)c4cc3F)C2)C1` [Cpd 212, (3S)-N-(1-{[6-Fluoro-1-(4-fluorophenyl)-1H-indol-5-yl]carbonyl}azetidin-3-yl)-1-(1,3-thiazol-2-ylcarbonyl)pyrrolidin-3-amine], for which, in experiment [1], the “Rat Brain 2AG % VehCntrl (%) @1 μM” value is recorded as 582%. The IC50 in experiment [2] is less than 5 nM.

As to `O=C(c1ccc2c(ccn2-c2ccc(C(F)(F)F)cc2)c1)N1CC(N[C@H]2CCN(C(=O)c3cscn3)C2)C1` [Cpd 158, (3S)-1-(1,3-Thiazol-4-ylcarbonyl)-N-[1-({1-[4-(trifluoromethyl)phenyl]-1H-indol-5-yl}carbonyl)azetidin-3-yl]pyrrolidin-3-amine], in experiment [1], the “Rat Brain 2AG % VehCntrl (%) @1 μM” value amounted to 415%. Also, the concentration for half-maximal inhibition (IC50) in experiment [2] came to 16 nM.

As for `O=C(c1ccccc1)N1CC[C@H](NC2CN(C(=O)c3sc4ccc(-c5ccccc5)cc4c3F)C2)C1` [Cpd 173, (3S)-N-{1-[(3-Fluoro-5-phenyl-1-benzothiophen-2-yl)carbonyl]azetidin-3-yl}-1-(phenylcarbonyl)pyrrolidin-3-amine], the “Rat Brain 2AG % VehCntrl (%) @1 μM” value in experiment [1] was 628%. Also, in experiment [2], the IC50 is less than 5 nM.

On to `O=C(c1ccc(-c2ccc(C(F)(F)F)cc2)cc1)N1CC(N[C@H]2CCN(C(=O)c3cscn3)C2)C1` [Cpd 145, (3S)-1-(1,3-Thiazol-4-ylcarbonyl)-N-(1-{[4′-(trifluoromethyl)biphenyl-4-yl]carbonyl}azetidin-3-yl)pyrrolidin-3-amine], for which the “Rat Brain 2AG % VehCntrl (%) @1 μM” value in experiment [1] was 193%. Further, the IC50 in experiment [2] is 96.4 nM.

With `O=C(c1cscn1)N1CC[C@H](NC2CN(C(=O)c3cc4ccc(-c5ccc(C(F)(F)F)cc5)cc4s3)C2)C1` [Cpd 128, (3S)-1-(1,3-Thiazol-4-ylcarbonyl)-N-[1-({6-[4-(trifluoromethyl)phenyl]-1-benzothiophen-2-yl}carbonyl)azetidin-3-yl]pyrrolidin-3-amine], the “Rat Brain 2AG % VehCntrl (%) @1 μM” value in experiment [1] worked out at 491%. In addition, in experiment [2], the half-inhibitory concentration (IC50) is 5 nM.

On to `O=C(c1cscn1)N1CC[C@H](NC2CN(C(=O)c3sc4ccc(Cl)cc4c3C(F)(F)F)C2)C1` [Cpd 181, (3S)-N-(1-{[5-Chloro-3-(trifluoromethyl)-1-benzothiophen-2-yl]carbonyl}azetidin-3-yl)-1-(1,3-thiazol-4-ylcarbonyl)pyrrolidin-3-amine], for which the “Rat Brain 2AG % VehCntrl (%) @1 μM” value in experiment [1] is on record as 241%. Also, the IC50 in experiment [2] amounted to 39.6 nM.

As for `Cc1c(C(=O)N2CC(N[C@H]3CCN(C(=O)c4cscn4)C3)C2)sc2ccc(-c3ccccc3)cc12` [Cpd 123, (3S)-N-{1-[(3-Methyl-5-phenyl-1-benzothiophen-2-yl)carbonyl]azetidin-3-yl}-1-(1,3-thiazol-4-ylcarbonyl)pyrrolidin-3-amine], the “Rat Brain 2AG % VehCntrl (%) @1 μM” value in experiment [1] was found to be 661%. Moreover, in experiment [2], the half-maximal inhibitory concentration (IC50) was less than 5 nM.

With `O=C(c1ccccc1)N1CC[C@H](NC2CN(C(=O)c3sc4cc(-c5ccc(C(F)(F)F)cc5)ccc4c3F)C2)C1` [Cpd 179, (3S)-N-[1-({3-Fluoro-6-[4-(trifluoromethyl)phenyl]-1-benzothiophen-2-yl}carbonyl)azetidin-3-yl]-1-(phenylcarbonyl)pyrrolidin-3-amine], in experiment [1], the “Rat Brain 2AG % VehCntrl (%) @1 μM” value came to 259%. Besides, the IC50 in experiment [2] was determined as 12 nM.

Regarding `O=C(c1cc2ccc(C(F)(F)F)cc2s1)N1CC(N[C@H]2CCN(C(=O)c3nccs3)C2)C1` [Cpd 138, (3S)-1-(1,3-Thiazol-2-ylcarbonyl)-N-(1-{[6-(trifluoromethyl)-1-benzothiophen-2-yl]carbonyl}azetidin-3-yl)pyrrolidin-3-amine], the “Rat Brain 2AG % VehCntrl (%) @1 μM” value in experiment [1] is 340%. For the same compound, the IC50 in experiment [2] turned out to be 16 nM.

Take `O=C(c1ccc(Cc2ccc(C(F)(F)F)cc2)cc1)N1CC(N[C@H]2CCN(C(=O)c3ccccc3)C2)C1` [Cpd 77, (S)-(3-((1-Benzoylpyrrolidin-3-yl)amino)azetidin-1-yl)(4-(4-(trifluoromethyl)benzyl)phenyl)methanone]: the “Rat Brain 2AG % VehCntrl (%) @1 μM” value in experiment [1] came out at 506%. The IC50 in experiment [2] was less than 5 nM.

Consider `O=C(c1cscn1)N1CC[C@H](NC2CN(C(=O)c3sc4cc(-c5ccccc5)ccc4c3Cl)C2)C1` [Cpd 147, (3S)-N-{1-[(3-Chloro-6-phenyl-1-benzothiophen-2-yl)carbonyl]azetidin-3-yl}-1-(1,3-thiazol-4-ylcarbonyl)pyrrolidin-3-amine], for which the “Rat Brain 2AG % VehCntrl (%) @1 μM” value in experiment [1] stood at 506%. Besides, in experiment [2], the half-maximal inhibitory concentration (IC50) was less than 5 nM.

In the case of `O=C(c1cscn1)N1CC[C@H](NC2CN(C(=O)c3sc4cc(C(F)(F)F)ccc4c3Cl)C2)C1` [Cpd 168, (3S)-N-(1-{[3-Chloro-6-(trifluoromethyl)-1-benzothiophen-2-yl]carbonyl}azetidin-3-yl)-1-(1,3-thiazol-4-ylcarbonyl)pyrrolidin-3-amine], the “Rat Brain 2AG % VehCntrl (%) @1 μM” value in experiment [1] is listed as 611%. Further, the IC50 in experiment [2] is 32.2 nM.

Consider `CC(C)=Cc1c(C(=O)N2CC(N[C@H]3CCN(C(=O)c4ccccc4)C3)C2)sc2cc(C(F)(F)F)ccc12` [Cpd 76, (3S)-N-(1-{[3-(2-Methylprop-1-en-1-yl)-6-(trifluoromethyl)-1-benzothiophen-2-yl]carbonyl}azetidin-3-yl)-1-(phenylcarbonyl)pyrrolidin-3-amine], for which the “Rat Brain 2AG % VehCntrl (%) @1 μM” value in experiment [1] was found to be 522%. In experiment [2], the half-inhibitory concentration (IC50) was 61.8 nM.

`Cn1cc(-c2ccc(F)cc2)c2ccc(C(=O)N3CC(N[C@H]4CCN(C(=O)c5cscn5)C4)C3)cc21` [Cpd 193, (3S)-N-(1-{[3-(4-Fluorophenyl)-1-methyl-1H-indol-6-yl]carbonyl}azetidin-3-yl)-1-(1,3-thiazol-4-ylcarbonyl)pyrrolidin-3-amine]: the “Rat Brain 2AG % VehCntrl (%) @1 μM” value in experiment [1] is 219%. In addition, the concentration for half-maximal inhibition (IC50) in experiment [2] is 19 nM.

Turning to `O=C(c1nccs1)N1CC[C@H](NC2CN(C(=O)c3sc4cc(-c5ccc(C(F)(F)F)cc5)ccc4c3F)C2)C1` [Cpd 177, (3S)-N-[1-({3-Fluoro-6-[4-(trifluoromethyl)phenyl]-1-benzothiophen-2-yl}carbonyl)azetidin-3-yl]-1-(1,3-thiazol-2-ylcarbonyl)pyrrolidin-3-amine], in experiment [1], the “Rat Brain 2AG % VehCntrl (%) @1 μM” value is 766%. For the same compound, the half-maximal inhibitory concentration (IC50) in experiment [2] turned out to be 16 nM.

As for `O=C(c1ccc2c(-c3ccc(C(F)(F)F)cc3)c[nH]c2c1)N1CC(N[C@H]2CCN(C(=O)c3ccccc3)C2)C1` [Cpd 101, (3S)-1-(Phenylcarbonyl)-N-[1-({3-[4-(trifluoromethyl)phenyl]-1H-indol-6-yl}carbonyl)azetidin-3-yl]pyrrolidin-3-amine], the “Rat Brain 2AG % VehCntrl (%) @1 μM” value in experiment [1] came to 141%. For the same compound, the IC50 in experiment [2] worked out at 44 nM.

As for `O=C(c1cscn1)N1CC[C@H](NC2CN(C(=O)c3sc4cc(-c5ccc(C(F)(F)F)cc5)ccc4c3F)C2)C1` [Cpd 178, (3S)-N-[1-({3-Fluoro-6-[4-(trifluoromethyl)phenyl]-1-benzothiophen-2-yl}carbonyl)azetidin-3-yl]-1-(1,3-thiazol-4-ylcarbonyl)pyrrolidin-3-amine], in experiment [1], the “Rat Brain 2AG % VehCntrl (%) @1 μM” value worked out at 297%. Besides, the IC50 in experiment [2] is less than 5 nM.

In the case of `O=C(c1cscn1)N1CC[C@H](NC2CN(C(=O)c3sc4ccc(-c5ccccc5)cc4c3F)C2)C1` [Cpd 172, (3S)-N-{1-[(3-Fluoro-5-phenyl-1-benzothiophen-2-yl)carbonyl]azetidin-3-yl}-1-(1,3-thiazol-4-ylcarbonyl)pyrrolidin-3-amine], in experiment [1], the “Rat Brain 2AG % VehCntrl (%) @1 μM” value turned out to be 532%. Moreover, the IC50 in experiment [2] was less than 5 nM.

Take `O=C(c1cscn1)N1CC[C@H](NC2CN(C(=O)c3sc4cc(Br)ccc4c3Cl)C2)C1` [Cpd 141, (3S)-N-{1-[(6-Bromo-3-chloro-1-benzothiophen-2-yl)carbonyl]azetidin-3-yl}-1-(1,3-thiazol-4-ylcarbonyl)pyrrolidin-3-amine]: the “Rat Brain 2AG % VehCntrl (%) @1 μM” value in experiment [1] came out at 388%. Moreover, the IC50 in experiment [2] came out at 19 nM.
